Assay results reported in patent publication US7592451B2, “Treatment for diabetes and obesity as well as method of screening compounds useful for such treatments” (New York University, priority 2005, dated 2009).

Columns and labels:
[1] = target: T1, rabbit muscle GAPDH (Oryctolagus cuniculus, UniProt P46406); assay: In vitro GAPDH inhibition assay (NADH fluorescence); assay type: biochemical; settings: 0.2 mM GAP, 0.1 mM NAD+, pH 8.6; read-out: IC50 against GAPDH
T1 construct: host or cells: rabbit muscle
T1 sequence (P46406 2-333 limits assumed): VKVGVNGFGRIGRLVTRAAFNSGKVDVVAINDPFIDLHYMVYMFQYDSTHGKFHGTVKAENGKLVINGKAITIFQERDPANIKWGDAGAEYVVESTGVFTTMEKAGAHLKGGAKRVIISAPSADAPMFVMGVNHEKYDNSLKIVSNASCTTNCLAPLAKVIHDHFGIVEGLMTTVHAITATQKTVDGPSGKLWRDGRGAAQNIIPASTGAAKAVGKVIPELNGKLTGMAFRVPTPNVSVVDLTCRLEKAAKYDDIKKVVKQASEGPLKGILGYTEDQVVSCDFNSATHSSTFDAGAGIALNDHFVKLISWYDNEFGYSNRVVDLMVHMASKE
Experimental: Rabbit muscle GAPDH and glyceraldehydes-3-phosphate (GAP) were employed. The assay was performed in black polypropylene 96-well micro-titer plates using a 100 μl solution of 100 mM sodium phosphate at pH 8.6, 5 mM EDTA, 0.2 mM GAP, 0.1 mM NAD^+, 0.5 units of GAPDH in the presence of varying concentrations of compound. The reaction was initiated by addition of GAP. Amounts of produced NADH was monitored by a fluorescence plate reader, at λex=340 nm, λem=460 nm (ex=excitation, em=emission wave length) (FIG. 7).

[2] = system: 3T3-L1 pre-adipocytes; assay: Glucose uptake (2-NBDG) by 3T3-L1 pre-adipocytes; assay type: cell-based
Experimental: To validate the relevance of this C. elegans data to a mammalian system, F43 was tested for glucose uptake in 3T3-L1 pre-adipocytes using a fluorescent derivative of glucose, 2-NBD-deoxyglucose (Moon et al., “A Novel Microtubule Destabilizing Entity from Orthogonal Synthesis of Triazine Library and Zebrafish Embryo Screening,” J. Am. Chem. Soc. 124:11608-11609 (2002), which is hereby incorporated by reference in its entirety).
3T3-L1 pre-adipocytes, were grown in DMEM (Dulbecco's Modified Eagle Medium Media) containing 1% antibiotics, and 10% heat-inactivated newborn calf serum under a humidified 5% CO2 atmosphere. The cells were seeded in 48-well plates and allowed to adhere to the dish overnight. Cultures at 70-80% confluence were used for the chemical exposures. […] Fluorescence intensity was measured in a fluorescence micro-plate reader at λex=466 nm and λem=540 nm.
FIGS. 3A-B show the up-regulation of glucose uptake by 3T3-L1 pre-adipocytes upon treatment with Insulin, the TGBz compound F43, and the TGBz compound E3 as a control. […] Following incubation with the dye for 15 min. at 37° C., cells were washed with ice-cold PBS, and the fluorescence intensity was measured. The uptake of the fluorescent 2-NBDG was visualized by a Leica 2000 fluorescence microscope with excitation at 488 nm and long-pass detection at 530 nm and measured by a fluorescence microplate reader. […]

[3] = system: Daf-2 mutant C. elegans strain e1370; assay: Dauer formation screen in Daf-2 mutant C. elegans; assay type: in vivo; settings: L2 stage worms soaked in 100 μM compound, warmed to 25° C.
Experimental: The Daf-2 mutant C. elegans strain e1370 was grown on nematode growth media (NGM) agar plates with E. coli (OP50) under standard conditions at 16° C. C. elegans mutant strains were obtained from the Caenorhabditis Genetics Center. Twenty synchronized early L2 animals grown at 16° C. were soaked in 96-well plates containing 100 μM of compounds/2% OP50 culture/M9 buffer, and then incubated at 25° C. for 4 days.
TG-Bz library (1120 members) compounds were screened in L2 stage worms grown at 16° C. by soaking in a 100 μM chemical solution and were warmed up to 25° C., in which 100% of untreated Daf-2 mutant larvae enter dauer within 24 hours. […] E3 is the TGBz control compound (FIG. 2C).

O=C(NCCOCCOCCNc1nc(NCCc2ccc(O)c(O)c2)nc(Nc2ccccc2)n1)c1ccccc1 [F43]
IC50 [1]: 4 µM | glucose uptake (2-NBDG fluorescence) ([2]; 15 min incubation, 100 μM 2-NBDG, compound up to 10 μM): dose dependent glucose uptake was observed | glucose uptake on co-treatment with insulin ([2]; co-treatment with insulin (100 nM), 15 min): synergistic effect | effect on dauer formation [3]: inhibits dauer formation
